Measurements taken from patent US8735152B2, “Methods for inducing cell death in pluripotent stem cells and differentiated cells other than cardiac myocytes” (Daiichi Sankyo Company, Limited, priority 2009, dated 2014).

How the values were obtained:
[1] = tested on: mouse embryonic stem cells; experiment: Cell death inducing effect on mouse embryonic stem cells (TMRM, FACS); type: cell-based; conditions: 0.45 M
Description: The mitochondrial membrane potential is lost in dead cells, so if cells are stained with the mitochondrial membrane potential sensitive reagent TMRM (Molecular Probe) which emits fluorescence upon detecting the membrane potential which is an indicator of survival, the fluorescence signal derived from this reagent is high in live cells but low in dead cells. This feature was used in Example 3; embryonic stem cells cultured by the method of Example 1 were further cultured in an α-MEM culture medium containing 0.45 M mannitol (approximately equivalent to 720 mOsm/kg) and 1 μM TMRM for a period of 0 h (Pre), 3 h, 6 h or 20 h; the cultured embryonic stem cells were harvested, washed and subjected to FACS analysis for checking the state of their survival on the basis of the fluorescence intensity of the mitochondrial membrane potential sensitive reagent TMRM; the results are shown in FIG. 4. In FIG. 4 depicting the results of FACS analysis for 0 h (Pre), 3 h, 6 h, and 20 h, the cells lying above the border line on the dot plots diagrams are live cells and those below the border line are dead cells.

[2] = tested on: mouse embryonic stem cell-derived cardiomyocytes, residual undifferentiated embryonic stem cells and other cells; experiment: Mannitol treatment of culture system containing both embryonic stem cell-derived cardiomyocytes and residual embryonic stem cells; type: cell-based; conditions: 0.45 M, 36 hours
Method: Mouse derived embryonic stem cells were treated by the method of Example 1 to form embryoid bodies, which were differentiated to a stage containing the programmed cardiomyocytes (precardiac mesoderms). Thus obtained embryoid bodies were treated with digestive enzymes (trypsin and collagenase) meticulously to ensure that no cell damage would be caused and the resulting partially dispersed embryoid bodies were subjected to another adherent culture. Upon a 5-day continued culture, populations of cardiomyocytes pulsating autonomously (the cell populations circled by the red lines), cell populations having the traits of embryonic stem cells-like cells (the cell populations circled by the yellow lines), and other cell populations were observed together (see FIG. 2(a)). In the next step, the culture medium for the mixed culture was replaced by a serum-free α-MEM culture medium containing mannitol in 0.45 M (approximately equivalent to 720 mOsm/kg) and ITS {insulin (10 mg/L), transferrin (5.5 mg/L), and sodium selenite ([…])} (GIBCO) and culture was performed for 36 hours. […] Subsequently, the culture medium was replaced by an α-MEM culture medium supplemented with 20% fetal calf serum and culture was continued, whereupon the cardiomyocytes restored autonomous pulsation in 1 or 2 days.

OC[C@@H](O)[C@@H](O)[C@H](O)[C@H](O)CO [mannitol]
Cells that had died ([1]; 3-hr treatment): approximately 90% | Cells that had died ([1]; 6-hr treatment): 98% | Cells that had died ([1]; 20-hr treatment): all cells had been dead | State of cells other than cardiomyocytes (cell death) ([2]; then culture in medium with 20% fetal calf serum): virtually all cells other than cardiomyocytes were found dead | Nkx 2.5 positive cardiomyocytes among the obtained cells ([2]; immunostaining): ≥ 98%
